Laboratory results published in paper PMC12156041, “Design, Synthesis and Antiplasmodial Activities of a Library of Fluorine-Based 3-Benzylmenadiones” (Molecules, 2025).
Converted amounts (≈) assume the structure as drawn. Read-outs that look alike come from different tables or passages of the source.

Assays:
[1] = system: P. falciparum NF54 strain; assay: P. falciparum NF54 [3H]hypoxanthine incorporation assay, 72 h, 0.5% Albumax; type: cell-based; details: Plasmodium falciparum
[2] = system: rat myoblast cell line (L6 cells); type: cell-based
Source text: Considering the potency of plasmodione and the observed main metabolite 6-hydroxy–plasmodione eliminated in the urine of PD-treated mice, our primary goal was to introduce a fluorine atom at C-6 of the menadione core to block the process of drug metabolism from occurring in the host’s liver. In this aim, we prioritized the preparation of a library of 6-fluoro-3-benzylmenadiones by investigating the replacement of the trifluoromethyl group by diverse EWG and EDG groups in various loci of the aryl ring. For SAR, all compounds were tested for the inhibition of parasite growth in RBCs infected with a P. falciparum chloroquine-sensitive strain, NF54. The parasites were cultured in vitro according to known conditions. […] The cytotoxicity of the active compounds was assessed against a rat myoblast cell line (L6 cells).
Cell proliferation was assessed with resazurin, and the generally cytotoxic agent podophyllotoxin served as the positive control, as previously reported by the STPH authors M. R. and P. M. in their recently published article.

[3] = system: P. falciparum NF54 strain; details: cited from earlier work
[4] = system: rat myoblast cell line (L6 cells); details: cited from earlier work
[5] = Thermodynamic aqueous solubility (shake-flask, PBS-10% DMSO); type: physicochemical; details: PBS with 10% DMSO, aqueous with cosolvent or surfactant or cyclodextrin, PBS pH 7.4, 10% DMSO, 20 °C, read-out: Thermodynamic aq. Solubility in PBS-10% DMSO
Procedure: Thermodynamic Aqueous Solubility: The shake-flask method enabled us to determine the apparent thermodynamic solubilities of the DMSO stock solutions of the compounds. […] The mixture was equilibrated at 20 °C for 24 h. After centrifugation, the supernatant was injected into an HPLC column coupled to an LC-MS apparatus (with UV–Vis detection) in order to determine the compound concentration. […] These solutions were also injected in order to calibrate the concentration determination process. […] Measurements were performed in duplicate.

[6] = NF54, 72 h, P. falciparum NF54, 72 h, read-out: IC50
[7] = NF54, as stated in text, read-out: IC50 against P. falciparum NF54
[8] = NF54, read-out: IC50 against P. falciparum NF54

Compound	IC50 [1, 6] [nM]	Tox/L6 [2] [µM]	other results
CC1=C(Cc2cccc(C(F)(F)F)c2)C(=O)c2cc(F)ccc2C1=O [A-a-1]	82	12.5	
CC1=C(Cc2ccccc2C(F)(F)F)C(=O)c2cc(F)ccc2C1=O [A-a-2]	138	53.4	
CC1=C(Cc2ccc(OC(F)(F)F)cc2)C(=O)c2cc(F)ccc2C1=O [A-a-3]	330	138.8	
CC1=C(Cc2ccc(F)cc2)C(=O)c2cc(F)ccc2C1=O [A-a-4]	302	174.5	
CC1=C(Cc2cccc(F)c2)C(=O)c2cc(F)ccc2C1=O [A-a-5]	246	6.6	
CC1=C(Cc2ccccc2F)C(=O)c2cc(F)ccc2C1=O [A-a-6]	119	7.6	
CC1=C(Cc2ccc(C(F)(F)F)c(F)c2)C(=O)c2cc(F)ccc2C1=O [A-a-7]	735	85.5	
CC1=C(Cc2ccc(C(F)(F)F)c(Br)c2)C(=O)c2cc(F)ccc2C1=O [A-a-8]	167		
CC1=C(Cc2ccc(F)c(C(F)(F)F)c2)C(=O)c2cc(F)ccc2C1=O [A-a-9]	149		
CC1=C(Cc2ccc(C#N)cc2)C(=O)c2cc(F)ccc2C1=O [A-a-10]	231	95	
CC1=C(Cc2ccccc2C#N)C(=O)c2cc(F)ccc2C1=O [A-a-11]	264	327.0	
CC1=C(Cc2ccc([N+](=O)[O-])cc2)C(=O)c2cc(F)ccc2C1=O [A-a-12]	177	307.0	
CC1=C(Cc2ccc(I)cc2)C(=O)c2cc(F)ccc2C1=O [A-a-13]	198	40.9	
CC1=C(Cc2ccc(Cl)cc2Cl)C(=O)c2cc(F)ccc2C1=O [A-a-14]	137		
CC1=C(Cc2ccc(Cl)cc2C(F)(F)F)C(=O)c2cc(F)ccc2C1=O [A-a-15]	103		
COc1ccc(CC2=C(C)C(=O)c3ccc(F)cc3C2=O)cc1 [A-a-16]	1120	195.9	
COc1cccc(CC2=C(C)C(=O)c3ccc(F)cc3C2=O)c1 [A-a-17]	361	165.6	
COc1ccccc1CC1=C(C)C(=O)c2ccc(F)cc2C1=O [A-a-18]	572	189.3	
COc1ccc(CC2=C(C)C(=O)c3ccc(F)cc3C2=O)cc1OC [A-a-19]	171	5.6	
COc1ccc(CC2=C(C)C(=O)c3ccc(F)cc3C2=O)c(OC)c1 [A-a-20]	316	106.6	
CC1=C(Cc2ccc3c(c2)OCO3)C(=O)c2cc(F)ccc2C1=O [A-a-21]	70	165.6	IC50 [1, 7]: < 100 nM
CC1=C(Cc2ccc3c(c2)OCCO3)C(=O)c2cc(F)ccc2C1=O [A-a-22]	311		
CC1=C(Cc2ccc3c(c2)OC(C)(C)O3)C(=O)c2cc(F)ccc2C1=O [A-a-23]	338		

Compound	IC50 [1, 6] [nM]	Tox/L6 [2] [µM]	other results
CC1=C(Cc2ccc3c(c2)OC(F)(F)O3)C(=O)c2cc(F)ccc2C1=O [A-a-24]	206		
COc1ccc(CC2=C(C)C(=O)c3ccc(F)cc3C2=O)c(OC)c1OC [A-a-25]	340	215.5	
COc1ccc(OC)c(CC2=C(C)C(=O)c3ccc(F)cc3C2=O)c1 [A-a-26]	291	91.7	
COc1cc(CC2=C(C)C(=O)c3ccc(F)cc3C2=O)cc(OC)c1OC [A-a-27]	265	72.4	
CC1=C(Cc2cccs2)C(=O)c2cc(F)ccc2C1=O [A-a-28]	474	5.8	
CC1=C(CC2CCCCC2)C(=O)c2cc(F)ccc2C1=O [A-a-29]	718	177.8	
CC1=C(Cc2ccc(F)cc2)C(=O)c2ccccc2C1=O [A-b-4]			IC50 [1, 8]: < 100 nM; IC50 ([3]; grey line ref 13): 29 nM
CC1=C(Cc2ccccc2F)C(=O)c2ccccc2C1=O [A-b-6]	453		
CC1=C(Cc2ccc(C(F)(F)F)c(F)c2)C(=O)c2ccccc2C1=O [A-b-7]	2960	49.2	
CC1=C(Cc2ccc(C(F)(F)F)c(Br)c2)C(=O)c2ccccc2C1=O [A-b-8]	81		IC50 [1, 7]: < 100 nM
CC1=C(Cc2ccccc2C#N)C(=O)c2ccccc2C1=O [A-b-11]	312	186.2	
CC1=C(Cc2ccc([N+](=O)[O-])cc2)C(=O)c2ccccc2C1=O [A-b-12]			IC50 [1, 8]: > 200 nM; IC50 ([3]; grey line ref 8): 201 nM
CC1=C(Cc2ccc(Cl)cc2Cl)C(=O)c2ccccc2C1=O [A-b-14]	67		IC50 [1, 7]: < 100 nM
CC1=C(Cc2ccc(Cl)cc2C(F)(F)F)C(=O)c2ccccc2C1=O [A-b-15]	80		IC50 [1, 7]: < 100 nM
COc1ccc(CC2=C(C)C(=O)c3ccccc3C2=O)cc1OC [A-b-19]			IC50 ([3]; grey line ref 13): 142 nM; Tox/L6 ([4]; grey line ref 13): 5.6 µM
CC1=C(Cc2ccc3c(c2)OCO3)C(=O)c2ccccc2C1=O [A-b-21]	200	97.9	
CC1=C(Cc2ccc3c(c2)OCCO3)C(=O)c2ccccc2C1=O [A-b-22]	280		
CC1=C(Cc2ccc3c(c2)OC(C)(C)O3)C(=O)c2ccccc2C1=O [A-b-23]	152		
CC1=C(Cc2ccc3c(c2)OC(F)(F)O3)C(=O)c2ccccc2C1=O [A-b-24]	77		IC50 [1, 7]: < 100 nM
CC1=C(Cc2cccs2)C(=O)c2ccccc2C1=O [A-b-28]	115	5.2	
CC1=C(CC2CCCCC2)C(=O)c2ccccc2C1=O [A-b-29]	913	229.9	
CC1=C(Cc2ccco2)C(=O)c2ccccc2C1=O [A-b-43]			IC50 ([3]; grey line ref 8): 501 nM; Tox/L6 ([4]; grey line ref 8): 4.2 µM
CC1=C(Cc2cccc(C#N)c2)C(=O)c2cc(F)ccc2C1=O [B-a-30]	326	33.3	

Compound	IC50 [1, 6] [nM]	Tox/L6 [2] [µM]	other results
CC1=C(Cc2ccccc2)C(=O)c2cc(F)ccc2C1=O [B-a-31]	300	174.5	
CC1=C(Cc2ccc([N+](=O)[O-])c(F)c2)C(=O)c2cc(F)ccc2C1=O [B-a-32]	705	107.4	
CC1=C(Cc2ccc(F)c(I)c2)C(=O)c2cc(F)ccc2C1=O [B-a-33]	376		
CC1=C(Cc2ccc(Br)cc2C(F)(F)F)C(=O)c2cc(F)ccc2C1=O [B-a-34]	169		
COc1cc(CC2=C(C)C(=O)c3ccc(F)cc3C2=O)cc(OC)c1 [B-a-35]	711	293.0	
CC1=C(Cc2cccc(C(F)(F)F)c2)C(=O)c2ccccc2C1=O [B-b-1]			IC50 [1, 7]: < 100 nM; IC50 ([3]; grey line ref 9): 62 nM; Tox/L6 ([4]; grey line ref 9): 57.1 µM
CC1=C(Cc2ccccc2C(F)(F)F)C(=O)c2ccccc2C1=O [B-b-2]			IC50 [1, 7]: < 100 nM; IC50 ([3]; grey line ref 9): 26 nM; Tox/L6 ([4]; grey line ref 9): 249.8 µM
CC1=C(Cc2cccc(F)c2)C(=O)c2ccccc2C1=O [B-b-5]	89	71.0	IC50 [1, 7]: < 100 nM
CC1=C(Cc2ccc(I)cc2)C(=O)c2ccccc2C1=O [B-b-13]			IC50 ([3]; grey line ref 9): 115 nM; Tox/L6 ([4]; grey line ref 9): 138.6 µM
CC1=C(Cc2cccc(C#N)c2)C(=O)c2ccccc2C1=O [B-b-30]	190	72.6	
CC1=C(Cc2ccccc2)C(=O)c2ccccc2C1=O [B-b-31]			IC50 ([3]; grey line ref 9): 1700 nM
CC1=C(Cc2ccc([N+](=O)[O-])c(F)c2)C(=O)c2ccccc2C1=O [B-b-32]			IC50 ([3]; grey line ref 9): 598 nM; Tox/L6 ([4]; grey line ref 9): 189.2 µM
CC1=C(Cc2ccc(F)c(I)c2)C(=O)c2ccccc2C1=O [B-b-33]	136		
CC1=C(Cc2ccc(Br)cc2C(F)(F)F)C(=O)c2ccccc2C1=O [B-b-34]	78		
CC1=C(Cc2ccc3scnc3c2)C(=O)c2cc(F)ccc2C1=O [C-a-40]	2060		
CC1=C(Cc2ccc3ncsc3c2)C(=O)c2cc(F)ccc2C1=O [C-a-41]	2530		
CC1=C(Cc2ccco2)C(=O)c2cc(F)ccc2C1=O [C-a-43]	947	3.8	
CC1=C(Cc2ccc3scnc3c2)C(=O)c2ccccc2C1=O [C-b-40]	235	50.29	
CC1=C(Cc2ccc3ncsc3c2)C(=O)c2ccccc2C1=O [C-b-41]	370	49.81	
CC1=C(Cc2ccc(S(F)(F)(F)(F)F)cc2)C(=O)c2ccccc2C1=O [C-b-46, 4′-SF5-substituted 3-benzylmenadione]	48	35.1	
O=C1C(O)=C([C@H]2CC[C@H](c3ccc(Cl)cc3)CC2)C(=O)c2ccccc21 [atovaquone, reference compound]			solubility thermodynamic at 24 h [5]: 1.55 ± 0.04 µM (≈ 0.569 µg/mL)
